# In patent US8530423B2, “Anxiolytic compositions containing αs1-casein-derived peptides” (Universite de Lorraine, priority 2008, dated 2013):
# Read-outs that look alike come from different tables or passages of the source. No end group written: not given here.
# Tests used:
# Wistar rat [1] = experiment: Elevated cross maze test; assay type: in vivo; details: for number of entries into the open arms / time spent in the open arms: p<0.05
# Description: The elevated cross maze test enables the density of the exploratory behavior in a new aversive situation to be measured [PELLOW et al., 1985 (16)]. The experiment exploits the conflict, in rodents, between the fear of open spaces and the desire to explore a new environment. The rat, placed at the center of the device, is forced to explore its environment. The open arms constitute an anxiety-producing environment, while this is not the case for the closed arms. The number of entries into all of the arms, the number of entries into the open arms, the number of entries into the closed arms, the time spent in the open arms, and the latency of entry into the first open arm constitute parameters reflecting the degree of anxiety of the animal.
# The elevated cross maze, made of wood, consists of four branches at 90° to one another. The two open branches (45×10 cm) and the two closed branches (45×10 cm, surrounded by wood plates over a height of 40 cm) are arranged opposite one another. The central square measures 10×10 cm. The open branches are illuminated by a white light with an intensity of 500 lx. The elevated cross maze is located 50 cm from the ground.
# The observations took place at between 9 and 11 o'clock in the morning in order to minimize the influence of the circadian rhythm. Before each passage through the elevated cross maze, the animal is placed for 10 minutes in an open field in order to stimulate its exploratory behavior. It is then placed in the central square of the elevated cross maze, and observed for 5 minutes. The cross maze is washed with 95% ethanol (v/v) between two passages so as to remove odors.
# The animals receive their respective treatment intraperitoneally one-half hour before being placed in the open field.
# Wistar rat [2] = experiment: Light/dark box test; assay type: in vivo; details: for time spent in the familiar compartment / time spent in the unfamiliar, aversive compartment: p<0.05, n=12
# Description: The light/dark tests are based on the innate aversion of rodents for strongly illuminated environments and on their spontaneous exploratory behavior in response to mild stress factors such as a new environment and light. The light/dark box device enables the exploratory behavior of the rodent to be studied with regard to an unfamiliar aversive compartment (strongly illuminated with white light) after habituation in a non-aversive compartment (dark), which then becomes familiar [BOURIN and HASCOET, 2003 (17)]. Classic anxiolytics can be detected by using this device.
# The light/dark box measures 65×49×35 cm (h×L×l) and is separated into two identical compartments by a plate with three 8×8-cm doors. The ground is covered with sawdust. Each rat is placed for 24 hours in the rear compartment of the box, and the doors communicating with the front compartment are made inaccessible. The rear compartment thus becomes the familiar compartment. The animal is fed and hydrated ad libitum. On the day of the test, the rat, after treatment, is again placed in the familiar compartment and the doors communicating with the front compartment (unfamiliar) are made accessible so that the animal can freely explore the environment. The unfamiliar compartment is made aversive by illumination with white light having an intensity of 1500 lx. The animals are observed for 10 minutes and the time spent in each of the compartments is measured.
# The animals receive their respective treatments intraperitoneally one-half hour before the communication between the familiar compartment and the unfamiliar compartment is opened.
# rat [3] = experiment: in vivo behavioral tests in the rat; details: this application
# [4] = literature (ZIOUDROU et al., LOUKAS et al.); cited from earlier work
# rat [5] = details: PCT/EP2007/063863; cited from earlier work
# [6] = EP 0714910; cited from earlier work
# [7] = molecular target: angiotensin-I converting enzyme (Homo sapiens, UniProt P12821); details: literature (MARUYAMA et al.); cited from earlier work
# Sequence of angiotensin-I converting enzyme (P12821 30-1306): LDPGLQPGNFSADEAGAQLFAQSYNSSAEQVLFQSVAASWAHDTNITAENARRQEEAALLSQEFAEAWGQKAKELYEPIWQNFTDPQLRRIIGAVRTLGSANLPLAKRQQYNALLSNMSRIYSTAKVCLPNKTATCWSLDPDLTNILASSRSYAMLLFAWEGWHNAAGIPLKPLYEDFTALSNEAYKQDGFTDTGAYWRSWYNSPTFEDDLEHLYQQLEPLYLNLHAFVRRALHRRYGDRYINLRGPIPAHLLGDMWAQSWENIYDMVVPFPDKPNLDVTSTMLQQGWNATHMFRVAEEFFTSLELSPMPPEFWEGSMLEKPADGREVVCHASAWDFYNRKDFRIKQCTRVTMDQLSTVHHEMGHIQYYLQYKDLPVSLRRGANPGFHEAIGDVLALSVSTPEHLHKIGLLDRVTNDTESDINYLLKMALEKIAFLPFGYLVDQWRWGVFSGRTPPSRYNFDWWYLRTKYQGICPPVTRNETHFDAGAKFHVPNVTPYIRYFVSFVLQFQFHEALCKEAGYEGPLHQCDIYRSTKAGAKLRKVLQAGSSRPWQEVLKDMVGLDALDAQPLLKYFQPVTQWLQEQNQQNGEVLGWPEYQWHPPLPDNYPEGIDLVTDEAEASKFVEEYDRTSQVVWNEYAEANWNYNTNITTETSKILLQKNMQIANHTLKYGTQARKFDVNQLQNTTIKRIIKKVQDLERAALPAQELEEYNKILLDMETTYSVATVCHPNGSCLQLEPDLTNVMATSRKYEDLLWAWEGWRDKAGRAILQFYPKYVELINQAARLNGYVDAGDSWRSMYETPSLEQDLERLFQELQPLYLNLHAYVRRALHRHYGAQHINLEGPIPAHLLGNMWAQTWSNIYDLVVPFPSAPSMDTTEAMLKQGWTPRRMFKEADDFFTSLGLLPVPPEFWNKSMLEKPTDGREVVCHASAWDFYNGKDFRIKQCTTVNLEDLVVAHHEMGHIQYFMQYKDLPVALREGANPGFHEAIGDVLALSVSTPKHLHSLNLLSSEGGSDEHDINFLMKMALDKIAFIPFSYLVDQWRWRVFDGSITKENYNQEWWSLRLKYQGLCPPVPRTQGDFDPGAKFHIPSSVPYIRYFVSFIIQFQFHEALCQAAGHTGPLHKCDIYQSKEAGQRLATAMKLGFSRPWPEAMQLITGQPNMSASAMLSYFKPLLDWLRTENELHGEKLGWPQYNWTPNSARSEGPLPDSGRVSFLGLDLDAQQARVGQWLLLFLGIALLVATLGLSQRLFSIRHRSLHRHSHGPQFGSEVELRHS
# [8] = 0.5 mg/kg i.p. versus diazepam 1 mg/kg i.p.
# [9] = 0.5 mg/kg intraperitoneally, Wistar rat
# [10] = vehicle animals compared with animals treated 0.5 mg/kg intraperitoneally, n=15
# [11] = vehicle animals compared with animals treated 0.5 mg/kg intraperitoneally
# [12] = vehicle animals compared with animals treated 1 mg/kg intraperitoneally, n=15
# [13] = vehicle animals compared with animals treated 1 mg/kg intraperitoneally
compound,measurement,setting,value
"Tyr-Leu-Gly-Tyr-Leu (YLGYL; listed as Bos taurus) [αs1-casein fragment 91-95, Pentapeptide corresponding to positions 91-95 of αs1-casein]",difference versus diazepam in the elevated cross maze,Wistar rat [1]; [8],No significant difference
same,number of entries into all of the arms (exploratory activity),"Wistar rat [1]; 0.5 mg/kg intraperitoneally one-half hour before open field, compared between treatments, n=15",not significantly different
same,action in the elevated cross maze test,Wistar rat [1]; [9],"an action similar to that of diazepam, i.e. an increase in the exploration of anxiety-producing zones"
same,number of entries into the open arms,Wistar rat [1]; [10],significantly lower
same,time spent in the open arms,Wistar rat [1]; [10],significantly lower
same,difference versus diazepam in the light/dark box,Wistar rat [2]; [8],No significant difference
same,action in the light/dark box test,Wistar rat [2]; [9],anxiolytic-type action similar to that of diazepam
same,time spent in the familiar compartment,Wistar rat [2]; [11],increases significantly
same,"time spent in the unfamiliar, aversive compartment",Wistar rat [2]; [11],significantly lower
same,anxiolytic properties,rat [3],possible to demonstrate the anxiolytic properties
same,in vitro opiate activity,[4],practically inactive
"91-99: peptide 91-99 derived from decapeptide, not containing arginine 100 (YLGYLEQLL; UniProt P02662 106-114, looked up, fragment)",anxiolytic properties,rat [5],show anxiolytic properties
"CN1C(=O)CN=C(c2ccccc2)c2cc(Cl)ccc21 [diazepam, reference compound]",number of entries into the open arms,Wistar rat [1]; [12],significantly lower
same,time spent in the open arms,Wistar rat [1]; [12],significantly lower
same,time spent in the familiar compartment,Wistar rat [2]; [13],increases significantly
same,"time spent in the unfamiliar, aversive compartment",Wistar rat [2]; [13],significantly lower
"91-97: peptide 91-97 derived from decapeptide, not containing arginine 100 (YLGYLEQ; UniProt P02662 106-112, looked up, fragment)",anxiolytic properties,rat [5],show anxiolytic properties
"YLGYLE [91-96, Hexapeptide corresponding to positions 91-96 of αs1-casein]",anxiolytic properties,rat [3],possible to demonstrate the anxiolytic properties
same,in vitro opiate activity,[4],practically inactive
"91-98: peptide 91-98 derived from decapeptide, not containing arginine 100 (YLGYLEQL; UniProt P02662 106-113, looked up, fragment)",anxiolytic properties,rat [5],show anxiolytic properties
"α-casozepine: αs1-casein fragment 91-100, decapeptide from αs1-casein tryptic hydrolysate (YLGYLEQLLR; UniProt P02662 106-115, looked up, fragment)",anxiolytic activity,[6],original anxiolytic activity
"90-95: αs1-casein peptide 90-95 (RYLGYL; UniProt P02662 105-110, looked up, fragment) [reference compound]",in vitro opiate activity,[4],demonstrated in vitro opiate activity
"194-199: αs1-casein peptide 194-199 (TTMPLW; UniProt P02662 209-214, looked up, fragment)",angiotensin-I converting enzyme inhibition,[7],angiotensin-I converting enzyme inhibitors
"90-96: αs1-casein peptide 90-96 (RYLGYLE; UniProt P02662 105-111, looked up, fragment) [reference compound]",in vitro opiate activity,[4],demonstrated in vitro opiate activity
